Where only a bound is given, the exact number is not on record here.

For this test, the target named is GCN2 kinase (Homo sapiens, UniProt Q9P2K8). As to the kind of experiment: GCN2 enzyme inhibition assay (Transcreener ADP2 fluorescence polarization). The format is biochemical. Conditions: Enzyme activity for compounds of Formula IV; Ki(app), 280 μM ATP, 25° C. In short, it runs like this: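 Kinase activity is followed as ADP formation, measured by fluorescence polarization, using 4 nM enzyme with 280 μM ATP and 200 μM (RS)7 peptide at pH 7.5 and 25 °C for 1 h. Values come from a non-linear tight-binding fit.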
Chain of GCN2 kinase (Q9P2K8 whole entry): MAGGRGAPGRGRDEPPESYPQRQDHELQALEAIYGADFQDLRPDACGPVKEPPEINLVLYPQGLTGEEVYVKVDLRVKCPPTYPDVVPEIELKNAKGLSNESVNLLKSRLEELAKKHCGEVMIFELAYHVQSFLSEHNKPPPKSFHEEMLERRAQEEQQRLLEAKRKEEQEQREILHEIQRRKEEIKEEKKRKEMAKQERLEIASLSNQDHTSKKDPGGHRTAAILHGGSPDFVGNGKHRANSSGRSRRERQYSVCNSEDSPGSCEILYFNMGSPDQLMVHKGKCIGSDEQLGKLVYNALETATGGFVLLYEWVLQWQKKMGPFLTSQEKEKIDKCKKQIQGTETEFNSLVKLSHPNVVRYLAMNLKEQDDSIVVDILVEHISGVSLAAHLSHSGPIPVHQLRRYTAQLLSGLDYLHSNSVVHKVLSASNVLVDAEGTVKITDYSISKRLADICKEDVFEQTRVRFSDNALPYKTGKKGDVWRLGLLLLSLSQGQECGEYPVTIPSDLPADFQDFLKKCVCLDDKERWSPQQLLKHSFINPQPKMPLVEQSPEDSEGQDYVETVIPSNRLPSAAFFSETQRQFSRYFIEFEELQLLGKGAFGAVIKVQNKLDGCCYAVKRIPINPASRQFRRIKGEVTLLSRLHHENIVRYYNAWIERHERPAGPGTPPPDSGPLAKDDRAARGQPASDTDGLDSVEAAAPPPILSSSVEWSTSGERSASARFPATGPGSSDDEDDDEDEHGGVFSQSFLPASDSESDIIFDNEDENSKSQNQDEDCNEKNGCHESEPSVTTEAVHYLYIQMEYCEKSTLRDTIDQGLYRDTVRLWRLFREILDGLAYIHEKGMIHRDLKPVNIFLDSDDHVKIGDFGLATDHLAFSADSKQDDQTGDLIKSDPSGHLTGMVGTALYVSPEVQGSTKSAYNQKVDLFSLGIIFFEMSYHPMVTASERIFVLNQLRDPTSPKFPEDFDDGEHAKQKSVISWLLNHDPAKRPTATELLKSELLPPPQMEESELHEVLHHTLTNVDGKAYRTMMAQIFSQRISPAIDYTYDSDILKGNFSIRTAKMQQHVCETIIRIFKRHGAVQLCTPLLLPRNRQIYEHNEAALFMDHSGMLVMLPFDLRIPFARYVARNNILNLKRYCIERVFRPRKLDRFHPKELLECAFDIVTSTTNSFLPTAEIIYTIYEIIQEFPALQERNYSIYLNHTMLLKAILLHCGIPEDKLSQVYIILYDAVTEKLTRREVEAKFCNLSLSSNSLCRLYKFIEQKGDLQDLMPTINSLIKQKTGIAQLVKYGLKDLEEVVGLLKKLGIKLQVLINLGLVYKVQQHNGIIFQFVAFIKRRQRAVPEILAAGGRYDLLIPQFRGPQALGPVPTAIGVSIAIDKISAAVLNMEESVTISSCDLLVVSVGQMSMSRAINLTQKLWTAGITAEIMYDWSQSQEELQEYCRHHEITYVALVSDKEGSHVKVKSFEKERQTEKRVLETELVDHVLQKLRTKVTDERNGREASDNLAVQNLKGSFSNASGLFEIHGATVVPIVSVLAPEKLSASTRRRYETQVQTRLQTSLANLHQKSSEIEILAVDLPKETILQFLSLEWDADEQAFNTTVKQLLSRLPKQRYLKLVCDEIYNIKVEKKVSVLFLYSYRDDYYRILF

As to `CC(C)(O)C1CCN(c2cccc(-c3cnc4cnc(C(N)=O)cn34)n2)CC1` [IV-226, 3-(6-(4-(2-Hydroxypropan-2-yl)piperidin-1-yl)pyridin-2-yl)imidazo[1,2-a]pyrazine-6-carboxamide], the Ki lay within 10 to 100 nM.
To `NC(=O)c1cn2c(-c3cccc(N4CCN5C(=O)NCC5C4)n3)cnc2cn1` (centres unmarked) [IV-227, 3-(6-(3-Oxohexahydroimidazo[1,5-a]pyrazin-7(1H)-yl)pyridin-2-yl)imidazo[1,2-a]pyrazine-6-carboxamide] belongs 100 to 1000 nM.
To `FC(F)c1cn2c(-c3cccc(-c4cccc5[nH]ccc45)n3)cnc2cn1` [IV-233, 3-(6-(1H-Indol-4-yl)pyridin-2-yl)-6-(difluoromethyl)imidazo[1,2-a]pyrazine] belongs 10 to 100 nM; to `CN1CCN(c2ccnc(-c3cnc4cnc(C(N)=O)cn34)n2)CC1` [IV-239, 3-(4-(4-Methylpiperazin-1-yl)pyrimidin-2-yl)imidazo[1,2-a]pyrazine-6-carboxamide], 100 to 1000 nM; to `NC(=O)c1cn2c(-c3nccc(N4CCOCC4)n3)cnc2cn1` [IV-240], 100 to 1000 nM.
`NC(=O)c1cn2c(-c3nccc(N4CCCCC4CO)n3)cnc2cn1` (centres unmarked) [IV-241, 3-(4-(2-(Hydroxymethyl)piperidin-1-yl)pyrimidin-2-yl)imidazo[1,2-a]pyrazine-6-carboxamide] registered a Ki of 100 to 1000 nM.
`NC(=O)c1cn2c(-c3nccc(N4CCCC(CO)C4)n3)cnc2cn1` (centres unmarked) [IV-242, 3-(4-(3-(Hydroxymethyl)piperidin-1-yl)pyrimidin-2-yl)imidazo[1,2-a]pyrazine-6-carboxamide] showed a Ki of 10 to 100 nM.
Turning to `NC(=O)c1cn2c(-c3nccc(N4CCC(CO)CC4)n3)cnc2cn1` [IV-243, 3-(4-(4-(Hydroxymethyl)piperidin-1-yl)pyrimidin-2-yl)imidazo[1,2-a]pyrazine-6-carboxamide], the Ki was 10 to 100 nM.
To `CC(=O)NC1CCN(c2ccnc(-c3cnc4cnc(C(N)=O)cn34)n2)CC1` [IV-248, 3-(4-(4-Acetamidopiperidin-1-yl)pyrimidin-2-yl)imidazo[1,2-a]pyrazine-6-carboxamide] belongs 10 to 100 nM; to `CC(=O)NC1CCCN(c2ccnc(-c3cnc4cnc(C(N)=O)cn34)n2)C1` (centres unmarked) [IV-249, 3-(4-(3-Acetamidopiperidin-1-yl)pyrimidin-2-yl)imidazo[1,2-a]pyrazine-6-carboxamide], 100 to 1000 nM.
To `CS(=O)(=O)NC1CCCN(c2ccnc(-c3cnc4cnc(C(N)=O)cn34)n2)C1` (centres unmarked) [IV-250, 3-(4-(3-(Methylsulfonamido)piperidin-1-yl)pyrimidin-2-yl)imidazo[1,2-a]pyrazine-6-carboxamide] belongs 100 to 1000 nM; to `CNS(=O)(=O)C1CCCN(c2ccnc(-c3cnc4cnc(C(N)=O)cn34)n2)C1` (centres unmarked) [IV-251, 3-(4-(3-(N-Methylsulfamoyl)piperidin-1-yl)pyrimidin-2-yl)imidazo[1,2-a]pyrazine-6-carboxamide], 100 to 1000 nM.
`CNS(=O)(=O)C1CCN(c2ccnc(-c3cnc4cnc(C(N)=O)cn34)n2)CC1` [IV-252, 3-(4-(4-(N-Methylsulfamoyl)piperidin-1-yl)pyrimidin-2-yl)imidazo[1,2-a]pyrazine-6-carboxamide] yielded a Ki of 100 to 1000 nM.
Regarding `N#CC1CN(c2ccnc(-c3cnc4cnc(C(N)=O)cn34)n2)CCC1=O` (centres unmarked) [IV-253, 3-(4-(3-Cyano-4-oxopiperidin-1-yl)pyrimidin-2-yl)imidazo[1,2-a]pyrazine-6-carboxamide], the Ki was 10 to 100 nM.
Take `N#CC1CCN(c2ccnc(-c3cnc4cnc(C(N)=O)cn34)n2)CC1` [IV-254, 3-(4-(4-Cyanopiperidin-1-yl)pyrimidin-2-yl)imidazo[1,2-a]pyrazine-6-carboxamide]: the Ki fell in the range of 10 to 100 nM.
As for `FC(F)(F)c1cn2c(-c3nccc(N4CCCC(n5ccnc5)C4)n3)cnc2cn1` (centres unmarked) [IV-255, 3-(4-(3-(1H-Imidazol-1-yl)piperidin-1-yl)pyrimidin-2-yl)-6-(trifluoromethyl)imidazo[1,2-a]pyrazine], the figure is 10 to 100 nM; as for `NC(=O)c1cn2c(-c3nccc(N4CCCC(N)C4)n3)cnc2cn1` (centres unmarked) [IV-256, 3-(4-(3-Aminopiperidin-1-yl)pyrimidin-2-yl)imidazo[1,2-a]pyrazine-6-carboxamide], 100 to 1000 nM.
The compound `NC(=O)c1cn2c(-c3nccc(N4CCN5C(=O)CCCC5C4)n3)cnc2cn1` (centres unmarked) [IV-257, 3-(4-(6-Oxooctahydro-2H-pyrido[1,2-a]pyrazin-2-yl)pyrimidin-2-yl)imidazo[1,2-a]pyrazine-6-carboxamide] returned a Ki of 10 to 100 nM.
Turning to `N#CC1CCCCN1c1ccnc(-c2cnc3cnc(C(N)=O)cn23)n1` (centres unmarked) [IV-258, 3-(4-(2-Cyanopiperidin-1-yl)pyrimidin-2-yl)imidazo[1,2-a]pyrazine-6-carboxamide], the Ki was in the range of 100 to 1000 nM.
As for `CC(=O)N1CCN(c2cccc(-c3cnc4cnc(C(F)(F)F)cn34)n2)CC1` [IV-259, 1-(4-(6-(6-(Trifluoromethyl)imidazo[1,2-a]pyrazin-3-yl)pyridin-2-yl)piperazin-1-yl)ethan-1-one], the figure is 100 to 1000 nM; as for `CNC(=O)c1cn2c(-c3cccc(N4CCN(C(C)=O)CC4)n3)cnc2cn1` [IV-260, 3-(6-(4-Acetylpiperazin-1-yl)pyridin-2-yl)-N-methylimidazo[1,2-a]pyrazine-6-carboxamide], 10 to 100 nM; as for `CC1CCCCN1c1ccnc(-c2cnc3cnc(C(N)=O)cn23)n1` (centres unmarked) [IV-261, 3-(4-(2-Methylpiperidin-1-yl)pyrimidin-2-yl)imidazo[1,2-a]pyrazine-6-carboxamide], 10 to 100 nM.
To `NC(=O)c1cn2c(-c3nccc(N4CCC(=O)N5CCCC5C4)n3)cnc2cn1` (centres unmarked) [IV-262, 3-(4-(5-Oxohexahydro-1H-pyrrolo[1,2-a][1,4]diazepin-2(3H)-yl)pyrimidin-2-yl)imidazo[1,2-a]pyrazine-6-carboxamide] belongs 100 to 1000 nM; to `NC(=O)c1cn2c(-c3nccc(N4CC(=O)N5CCCCC5C4)n3)cnc2cn1` (centres unmarked) [IV-263, 3-(4-(4-Oxooctahydro-2H-pyrido[1,2-a]pyrazin-2-yl)pyrimidin-2-yl)imidazo[1,2-a]pyrazine-6-carboxamide], 100 to 1000 nM; to `CC1CCCN(c2ccnc(-c3cnc4cnc(C(N)=O)cn34)n2)C1C` (centres unmarked) [IV-264, 3-(4-(2,3-Dimethylpiperidin-1-yl)pyrimidin-2-yl)imidazo[1,2-a]pyrazine-6-carboxamide], < 10 nM.
For `NC(=O)c1cn2c(-c3nccc(N4CCN5CCCCC5C4)n3)cnc2cn1` (centres unmarked) [IV-265, 3-(4-(Octahydro-2H-pyrido[1,2-a]pyrazin-2-yl)pyrimidin-2-yl)imidazo[1,2-a]pyrazine-6-carboxamide], the Ki fell in the range of 100 to 1000 nM.
As for `NC(=O)c1cn2c(-c3nccc(N4CCC5(CC4)OCCO5)n3)cnc2cn1` [IV-266, 3-(4-(1,4-Dioxa-8-azaspiro[4.5]decan-8-yl)pyrimidin-2-yl)imidazo[1,2-a]pyrazine-6-carboxamide], the figure is 10 to 100 nM; as for `CC(=O)N(C)C1CCN(c2ccnc(-c3cnc4cnc(C(N)=O)cn34)n2)C1` (centres unmarked) [IV-267, 3-(4-(3-(N-Methylacetamido)pyrrolidin-1-yl)pyrimidin-2-yl)imidazo[1,2-a]pyrazine-6-carboxamide], 100 to 1000 nM.
The compound `NC(=O)c1cn2c(-c3nccc(N4CC(=O)N5CCCC5C4)n3)cnc2cn1` (centres unmarked) [IV-268, 3-(4-(4-Oxohexahydropyrrolo[1,2-a]pyrazin-2(1H)-yl)pyrimidin-2-yl)imidazo[1,2-a]pyrazine-6-carboxamide] showed a Ki of 100 to 1000 nM.

These data come from patent publication US10988477B2 (Merck Patent GmbH, priority 2018, dated 2021).
